Here are results for 8 molecules from article PMC8629322 (ACS chemical neuroscience, 2020).

Bounds are passed on as bounds.

What is called IC50 is the concentration needed to halve the response being measured. Higher therefore signals weaker potency. As usually defined, the viability is a read-out of living cells in per cent, often relative to untreated cells.

Series [1] deals with T1, FAM-RNA:MSUT2 ZF complex (poly(A):MSUT2 RNA-protein interaction) (Homo sapiens, UniProt Q6PJT7).
T1 sequence (Q6PJT7 601-736): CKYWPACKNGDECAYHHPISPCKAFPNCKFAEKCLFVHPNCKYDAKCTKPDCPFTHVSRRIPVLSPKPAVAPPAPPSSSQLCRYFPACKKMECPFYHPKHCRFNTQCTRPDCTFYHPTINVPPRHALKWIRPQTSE
Nature of the series: Fluorescence polarization assay of FAM-poly. In kind it is binding.

Series [2] deals with T2, PABPN1 (Homo sapiens, UniProt Q86U42).
T2 sequence (Q86U42 1-306): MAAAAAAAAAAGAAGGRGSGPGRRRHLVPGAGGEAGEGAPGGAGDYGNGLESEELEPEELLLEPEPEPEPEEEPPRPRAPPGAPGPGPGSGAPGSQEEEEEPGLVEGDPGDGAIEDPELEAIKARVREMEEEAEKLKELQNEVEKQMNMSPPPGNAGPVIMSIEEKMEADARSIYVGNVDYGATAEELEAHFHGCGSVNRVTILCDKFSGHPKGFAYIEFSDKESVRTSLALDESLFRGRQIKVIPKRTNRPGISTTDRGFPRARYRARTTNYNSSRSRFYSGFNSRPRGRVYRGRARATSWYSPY
Nature of the series: PABPN1 fluorescence polarization counter screen. In kind it is binding.

Series [3] concerns the target T3, biotinylated RNA:GST-MSUT2 ZF (Homo sapiens, UniProt Q6PJT7).
T3 sequence (Q6PJT7 601-736): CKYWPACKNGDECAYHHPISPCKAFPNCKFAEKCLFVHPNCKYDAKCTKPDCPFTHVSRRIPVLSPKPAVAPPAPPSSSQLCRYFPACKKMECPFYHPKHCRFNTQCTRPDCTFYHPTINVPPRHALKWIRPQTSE
Nature of the series: AlphaScreen orthogonal poly. The series is classed as binding. The settings on record: for inhibition activity by AlphaScreen: dose-response, 50 nM biotinylated RNA, 50 nM GST-MSUT2. (In Alpha technology, singlet oxygen from a donor bead excites a nearby acceptor bead.)

The conditions of series [4]: cited from earlier work.
Series [5] concerns albumin and α1-acid glycoprotein in the plasma. Conditions: cited from earlier work.
The subject of series [6] is hippocampus neuronal loss. Conditions: rat model of chronic cerebral hypoperfusion; cited from earlier work.
Series [7] in a line: Cell viability assay. Conditions: human, HEK293 cells.
Series [8] concerns poly(A). The settings on record: cited from earlier work.
Series [9] concerns efflux transporters. Conditions: cited from earlier work.
For series [10], the target named is T4, MSUT2 ZF (CCCH domains only) (UniProt Q6PJT7 601-736).
T4 sequence: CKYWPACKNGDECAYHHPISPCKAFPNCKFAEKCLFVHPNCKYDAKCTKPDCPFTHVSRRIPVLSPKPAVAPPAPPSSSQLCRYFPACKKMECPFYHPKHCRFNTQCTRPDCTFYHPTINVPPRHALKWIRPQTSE
Nature of the series: competition.

On to `CNCC[C@H](Oc1cccc2ccccc12)c1cccs1` [duloxetine], for which the “concentration range of inhibitory response in FP assay” value in series [1] (acted over 4 log units) lay within 0.01 to 10 µM. Besides, the IC50 in series [2] was determined as 4.98 µM. Moreover, the “inhibition activity by AlphaScreen” value in series [3] was “dose-dependent inhibition activity”. For the same molecule, in series [3] (over a single log unit), the “concentration range of inhibition measured by AS” value fell in the range of 1.0 to 10 µM. Besides, the “penetration into cerebral spinal fluid” value in [4] is reported as “crosses into cerebral spinal fluid at a much lower rate than other antidepressants”. Besides, the “bound to albumin and α1-acid glycoprotein in the plasma” value in series [5] is ~ 90%. Further, the “neuronal loss in the hippocampus” value in series [6] is on record as “attenuated neuronal loss in the hippocampus”. Besides, the viability at 72 h in series [7] was above 90%.
As for `CC(C)/N=c1\cc2n(-c3ccc(Cl)cc3)c3ccccc3nc-2cc1Nc1ccc(Cl)cc1` [clofazimine], the half-inhibitory concentration (IC50) in series [1] worked out at 0.731 µM; in [2], 23 µM. In [3], the “inhibition activity by AlphaScreen” value is on record as “dose-dependent inhibition activity”. Moreover, the “crossing of the blood-brain barrier” value in [4] is “unable to cross the blood-brain barrier”. In addition, the “interaction with poly(A)” value in [8] is given as “little interaction”. The viability at 72 h in [7] is above 90%.
Regarding `CC(C)(C)NC(=O)[C@@H]1C[C@@H]2CCCC[C@@H]2CN1C[C@@H](O)[C@H](Cc1ccccc1)NC(=O)[C@H](CC(N)=O)NC(=O)c1ccc2ccccc2n1` [saquinavir], the IC50 in [2] turned out to be 0.617 µM. Further, the “inhibition activity by AlphaScreen” value in [3] was “dose-dependent inhibition activity”. For the same molecule, the brain penetrance result in series [4] was “low brain penetrance”. The efflux transporter substrate result in series [9] is given as “substrate of efflux transporters”. Moreover, the viability at 72 h, 40 µM in series [7] was 65%.
In series [2], `OCCOCCN1CCN(C(c2ccccc2)c2ccc(Cl)cc2)CC1` (centres unmarked) [hydroxyzine] displayed a half-inhibitory concentration (IC50) of 9.09 µM.
On the same count and under the same terms, the figure for `CC(C(=O)O)c1ccc(-c2ccccc2)c(F)c1` (centres unmarked) [flurbiprofen] is 6.69 µM.
For the molecule `CC(C)(C)NC(=O)[C@@H]1CN(Cc2cccnc2)CCN1C[C@@H](O)C[C@@H](Cc1ccccc1)C(=O)N[C@H]1c2ccccc2C[C@H]1O` [indinavir], the IC50 amounted to 0.247 µM in series [1] and 35.8 µM in series [2].
For the molecule `CN1C2CCCC1CC(NC(=O)c1nn(C)c3ccccc13)C2` (centres unmarked) [granisetron], the IC50 in [1] stood at 0.306 µM; in series [2], 8.65 µM.

B1: unlabeled poly(A)15 RNA (ssRNA)
RNA: AAAAAAAAAAAAAAA
B1 yielded an IC50 in series [10] of 0.29 µM.
